Seven compounds from ChEMBL document CHEMBL2439989 (Bioorg Med Chem Lett, 2013) can be followed below.

Where only a bound is given, the exact number is not on record here.

The target in data set [1] is T1, Adrenergic receptor alpha-1 (Rattus norvegicus, UniProt P15823+P23944+P43140).
T1 sequence (P15823 whole entry): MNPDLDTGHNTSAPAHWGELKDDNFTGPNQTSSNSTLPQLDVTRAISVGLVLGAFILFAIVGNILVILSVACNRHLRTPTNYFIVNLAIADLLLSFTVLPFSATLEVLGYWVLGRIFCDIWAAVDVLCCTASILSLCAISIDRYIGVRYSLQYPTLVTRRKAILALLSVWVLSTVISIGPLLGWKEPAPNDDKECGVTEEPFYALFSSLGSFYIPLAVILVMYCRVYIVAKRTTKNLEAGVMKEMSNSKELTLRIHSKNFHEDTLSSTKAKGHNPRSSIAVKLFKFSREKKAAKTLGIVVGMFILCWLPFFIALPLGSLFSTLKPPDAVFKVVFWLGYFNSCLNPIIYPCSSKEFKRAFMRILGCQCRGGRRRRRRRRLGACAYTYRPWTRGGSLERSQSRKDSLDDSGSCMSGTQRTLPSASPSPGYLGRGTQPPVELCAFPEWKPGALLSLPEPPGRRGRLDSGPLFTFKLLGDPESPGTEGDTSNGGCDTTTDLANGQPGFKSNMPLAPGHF
T1 sequence (P23944 whole entry): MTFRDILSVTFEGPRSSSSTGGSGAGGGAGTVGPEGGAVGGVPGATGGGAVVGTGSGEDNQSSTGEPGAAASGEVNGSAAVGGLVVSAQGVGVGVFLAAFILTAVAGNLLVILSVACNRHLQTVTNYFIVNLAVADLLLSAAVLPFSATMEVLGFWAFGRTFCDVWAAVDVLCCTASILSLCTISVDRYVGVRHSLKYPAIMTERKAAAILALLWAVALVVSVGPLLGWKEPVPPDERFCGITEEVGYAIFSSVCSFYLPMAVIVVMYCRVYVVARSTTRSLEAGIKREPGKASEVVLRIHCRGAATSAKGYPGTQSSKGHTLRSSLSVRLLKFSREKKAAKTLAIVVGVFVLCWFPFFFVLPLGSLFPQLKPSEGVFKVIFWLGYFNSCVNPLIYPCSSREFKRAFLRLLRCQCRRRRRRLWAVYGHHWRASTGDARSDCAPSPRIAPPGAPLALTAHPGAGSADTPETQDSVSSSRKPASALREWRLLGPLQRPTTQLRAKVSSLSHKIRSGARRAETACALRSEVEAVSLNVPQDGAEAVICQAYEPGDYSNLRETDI
T1 sequence (P43140 whole entry): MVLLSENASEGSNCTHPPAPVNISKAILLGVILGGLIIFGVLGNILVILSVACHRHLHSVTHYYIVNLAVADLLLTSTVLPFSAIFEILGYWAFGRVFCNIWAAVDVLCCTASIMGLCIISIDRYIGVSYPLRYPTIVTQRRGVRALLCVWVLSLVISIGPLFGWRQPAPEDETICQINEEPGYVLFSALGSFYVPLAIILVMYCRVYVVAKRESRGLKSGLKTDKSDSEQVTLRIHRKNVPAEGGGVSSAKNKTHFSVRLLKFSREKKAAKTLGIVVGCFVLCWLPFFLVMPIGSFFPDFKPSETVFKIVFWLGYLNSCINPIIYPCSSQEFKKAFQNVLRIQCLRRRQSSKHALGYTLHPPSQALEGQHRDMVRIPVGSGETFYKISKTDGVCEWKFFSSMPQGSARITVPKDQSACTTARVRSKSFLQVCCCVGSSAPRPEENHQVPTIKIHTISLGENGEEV
In words: Displacement of [3H]-prazosin from alpha1 adrenergic receptor in rat cerebral cortex membranes after 50 mins. In kind it is cell membranes, Membrane. (In general: Loss of bound radioactivity is the signal in a displacement assay; it reports binding, not function.)

Data set [2] addresses 5-hydroxytryptamine receptor 7 (Homo sapiens, UniProt P34969). In words: Displacement of [3H]5-CT from human 5HT7A receptor expressed in HEK293 cells after 60 mins. In kind it is cell-based.
For data set [3], the target named is T2, 5-hydroxytryptamine receptor 1A (Homo sapiens, UniProt P08908).
T2 sequence (P08908 whole entry): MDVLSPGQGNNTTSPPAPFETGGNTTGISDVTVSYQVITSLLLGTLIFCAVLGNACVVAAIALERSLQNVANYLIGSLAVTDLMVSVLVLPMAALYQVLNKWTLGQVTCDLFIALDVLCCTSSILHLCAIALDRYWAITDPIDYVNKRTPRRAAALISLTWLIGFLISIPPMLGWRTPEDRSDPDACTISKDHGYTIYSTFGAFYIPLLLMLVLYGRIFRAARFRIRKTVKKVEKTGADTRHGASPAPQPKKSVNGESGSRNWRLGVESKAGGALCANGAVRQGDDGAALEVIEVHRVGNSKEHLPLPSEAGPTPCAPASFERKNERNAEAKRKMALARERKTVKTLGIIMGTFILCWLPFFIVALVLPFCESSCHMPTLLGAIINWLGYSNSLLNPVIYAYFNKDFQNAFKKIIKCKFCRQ
In words: Displacement of [3H]-8-OH-DPAT from human recombinant 5HT1A receptor expressed in HEK293-EBNA cells after 120 mins. The data set is classed as cell-based.

The next data set is filed under the species Homo sapiens. The data set is described as follows: (§1) Binding affinity to sigma 2 receptor (unknown origin) by radioligand binding assay. As to conditions: concentration not given here.
The nature of data set [4]: as §1. More on the design: species or system Homo sapiens.
A short description of data set [5]: Metabolic stability in rat liver S9 fractions at 10 uM after 30 mins by RP-HPLC analysis. In kind it is ADME, subcellular, Liver S9 fraction. Particulars: read-out: Stability.
Data set [6] has as its target Sigma non-opioid intracellular receptor 1 (Homo sapiens, UniProt Q99720). In words: Binding affinity to sigma 1 receptor (unknown origin) by radioligand binding assay. As to conditions: for inhibition: concentration not given here.
Data set [7] in a line: Efflux ratio of apparent permeability from basolateral to apical side over apical to basolateral side in human Caco2 cells at 1 to 100 uM after 120 mins by UV spectroscopic analysis. In kind it is ADME, cell-based. As to conditions: Caco-2. A general note: Caco-2 cells form a polarised layer with tight junctions and transporters.
Data set [8] in a line: Elimination half life in CD1 mouse at 10 mg/kg, ip qd by RP-HPLC analysis. The data set is classed as ADME, organism-based. More on the design: dose 10 mg/kg, route intraperitoneal. Particulars: in vivo, read-out: beta t1/2.
For another data set, the system named is Brain. The data set is described as follows: Cmax in brain of CD1 mouse assessed as 1-[2-(4-methoxyphenyl)phenyl]piperazine at 10 mg/kg, ip qd after 30 mins by RP-HPLC analysis. Particulars: in vivo, 0.5 h. In kind it is ADME, organism-based. More on the design: dose 10 mg/kg, route intraperitoneal.
Data set [9] is described as follows: Cmax in brain of CD1 mouse at 10 mg/kg, ip qd after 30 mins by RP-HPLC analysis. In kind it is ADME, organism-based. The arrangement: dose 10 mg/kg, route intraperitoneal.
Data set [10] can be described thus: Ratio of AUC from brain to plasma of CD1 mouse at 10 mg/kg, ip qd measured within 120 mins by RP-HPLC analysis. The data set is classed as ADME, organism-based. More on the design: dose 10 mg/kg, route intraperitoneal. As to conditions: read-out: Ratio AUC.
The test system of another data set is Mus musculus. The data set is described as follows: Elimination half life in CD1 mouse assessed as 1-[2-(4-methoxyphenyl)phenyl]piperazine at 10 mg/kg, ip qd by RP-HPLC analysis. Particulars: in vivo. In kind it is ADME, organism-based. The arrangement: dose 10 mg/kg, route intraperitoneal.
The nature of data set [11]: Cmax in plasma of CD1 mouse at 10 mg/kg, ip qd after 15 mins by RP-HPLC analysis. The data set is classed as ADME, organism-based. The arrangement: dose 10 mg/kg, route intraperitoneal.
A short description of data set [12]: Half life in mouse brain at 10 to 30 mg/kg, ip. The arrangement: dose 10-30 mg/kg, route intraperitoneal. In kind it is ADME, organism-based.
The target of data set [13] is T2, 5-hydroxytryptamine receptor 1A. In words: Displacement of [3H]-8-OH-DPAT from human 5HT1A receptor after […].

Chain of Sigma non-opioid intracellular receptor 1 (Q99720 whole entry): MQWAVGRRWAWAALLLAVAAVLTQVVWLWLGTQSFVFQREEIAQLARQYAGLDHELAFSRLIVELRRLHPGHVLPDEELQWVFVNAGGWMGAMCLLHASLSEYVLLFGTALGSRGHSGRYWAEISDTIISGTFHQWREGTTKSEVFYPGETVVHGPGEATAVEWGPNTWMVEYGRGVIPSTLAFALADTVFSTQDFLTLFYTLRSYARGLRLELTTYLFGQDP
Chain of 5-hydroxytryptamine receptor 7 (P34969 whole entry): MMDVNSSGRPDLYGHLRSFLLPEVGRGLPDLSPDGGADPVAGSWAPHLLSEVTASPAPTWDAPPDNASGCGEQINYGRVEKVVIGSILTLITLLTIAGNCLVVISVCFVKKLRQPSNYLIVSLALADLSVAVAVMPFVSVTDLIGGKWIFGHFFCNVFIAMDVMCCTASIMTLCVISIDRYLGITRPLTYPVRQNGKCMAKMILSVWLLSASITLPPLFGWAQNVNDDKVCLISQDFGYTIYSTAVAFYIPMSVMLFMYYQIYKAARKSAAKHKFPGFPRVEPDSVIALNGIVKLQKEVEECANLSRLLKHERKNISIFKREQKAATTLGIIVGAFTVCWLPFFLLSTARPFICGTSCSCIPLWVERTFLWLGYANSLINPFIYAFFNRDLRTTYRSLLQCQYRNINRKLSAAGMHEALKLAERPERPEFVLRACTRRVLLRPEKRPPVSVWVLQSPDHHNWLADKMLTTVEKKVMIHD

With `COc1ccc(-c2ccccc2N2CCN(CCOCCC(=O)NCc3ccccn3)CC2)cc1`, the inhibition constant Ki (commonly the equilibrium dissociation constant of an inhibitor or competing ligand from its target) in data set [1] is 295 nM; in data set [2] it was 23.5 nM; in data set [3] it was 918 nM; in data set [4], above 10000 nM; in data set [6] it was above 5000 nM. The inhibition (in general, the percentage by which the read-out fell short of the control) in the data set filed under Homo sapiens came to 39%; in [6], 27%. Besides, in [5], the remaining at 0.5 h, 10 µM is 78%.

As for `COc1ccc(-c2ccccc2N2CCN(CCOCCC(=O)NCc3ccncc3)CC2)cc1`, the Ki was 193 nM in data set [1]; 18 nM in [2]; 877 nM in [3]; above 10000 nM in data set [4]; above 5000 nM in [6]. The inhibition in the data set filed under Homo sapiens came out at 45%; in [6], 33%. Besides, the remaining at 0.5 h, 10 µM in [5] was 82%.

Regarding `COc1ccc(-c2ccccc2N2CCN(CCCCCC(=O)NCc3ccccn3)CC2)cc1`, the Ki was determined as 11.4 nM in data set [1], 15.2 nM in data set [2], 35 nM in [3] and 3480 nM in data set [4]. In addition, in data set [5], the remaining at 0.5 h, 10 µM was found to be 69%.

`COc1ccc(-c2ccccc2N2CCN(CCCCCC(=O)NCc3ccncc3)CC2)cc1`: the inhibition constant (Ki) is 30.5 nM in data set [1]; 11.2 nM in [2]; 239 nM in [3]; 356 nM in [4]; above 5000 nM in [6]. Besides, the remaining at 0.5 h, 10 µM in data set [5] was 76%. The compound further showed an inhibition in data set [6] of 30%.

On to `COc1ccc(-c2ccccc2N2CCN(CCCCCC(=O)NCc3cccnc3)CC2)cc1`, for which the efflux ratio (usually a quotient of directional permeabilities that is used to spot active efflux) at 2 h, up to 100 µM in [7] is 4.5. Moreover, the Ki was found to be 38.3 nM in data set [1], 12.7 nM in data set [2], 80 nM in data set [3] and 638 nM in data set [4]. In addition, in data set [5], the remaining at 0.5 h, 10 µM turned out to be 85%.

As to `COc1ccc(-c2ccccc2N2CCN(CCOCCC(=O)NCc3cccnc3)CC2)cc1`, the half-life in data set [8] was 0.733 h. In addition, the efflux ratio at 2 h, up to 100 µM in data set [7] was 3.3. Further, the peak concentration (Cmax) (in general, the maximum level reached in the sampled fluid or tissue) came out at 484 ng/g in the data set on Brain, 308 ng/g in data set [9] and 702 ng/mL in data set [11]. For the same compound, the Ki was 393 nM in [1]; 23.8 nM in data set [2]; 1270 nM in [3]; above 10000 nM in data set [4]; above 5000 nM in [6]. Besides, in data set [10], the Kp at 2 h came out at 1.3. For the same compound, the inhibition in the data set filed under Homo sapiens worked out at 38%; in data set [6], 36%. Moreover, in the data set with Mus musculus, the “beta t1/2” value came to 2 h. Moreover, the remaining at 0.5 h, 10 µM in data set [5] was determined as 82%.

As for `N#Cc1ccc(CNC(=O)CCCCCN2CCN(c3ccccc3-c3ccccc3)CC2)cc1`, the half-life in data set [12] is 1.15 h. For the same compound, the Ki in data set [13] was 379 nM; in [1], 22.6 nM; in data set [4], 4200 nM; in [6], above 5000 nM. For the same compound, in data set [5], the remaining at 0.5 h, 10 µM is 40%. In [6], the inhibition was found to be 48%.
